For experiment [1], the target named is plasma dipeptidylpeptidase IV (UniProt P27487). As to the kind of experiment: In vitro dipeptidylpeptidase IV inhibition (H-Gly-Pro-AMC hydrolysis, fluorometry). Type of experiment: biochemical. The settings on record: plasma diluted 8-fold, H-Gly-Pro-AMC.HBr substrate, room temperature 20 minutes. The procedure: The concentration of free 7-amino-4-methyl-coumarin (AMC) generated by hydrolysis of H-Gly-Pro-AMC.HBr substrate by plasma dipeptidylpeptidase IV was determined by fluorometry.
A 20 μL of buffer (25 mmol/L hepes, 140 mmol/L sodium chloride, 1% bovine serum albumin, 80 mmol/L magnesium chloride hexahydrate, pH 7.4) containing each compound was added to 20 μL of plasma diluted 8-fold with saline in a well of a 96-well flat bottom plate. The plate was left at room temperature for 5 minutes and 10 μL of 0.1 mmol/L H-Gly-Pro-AMC.HBr solution was added to each well to initiate the reaction. […] Using a fluorescent plate reader, the free AMC concentration was determined by exciting the samples at 355 nm and measuring the fluorescence intensity at 460 nm.

The target of experiment [2] is T1, plasma dipeptidylpeptidase IV (Mus musculus, UniProt P28843).
T1 construct: The blood samples were centrifuged at 6000 rpm for 2 minutes to separate plasma; tissue Charles River Laboratories Japan; host or cells: plasma of male ICR mice
T1 sequence (P28843 37-760 limits assumed): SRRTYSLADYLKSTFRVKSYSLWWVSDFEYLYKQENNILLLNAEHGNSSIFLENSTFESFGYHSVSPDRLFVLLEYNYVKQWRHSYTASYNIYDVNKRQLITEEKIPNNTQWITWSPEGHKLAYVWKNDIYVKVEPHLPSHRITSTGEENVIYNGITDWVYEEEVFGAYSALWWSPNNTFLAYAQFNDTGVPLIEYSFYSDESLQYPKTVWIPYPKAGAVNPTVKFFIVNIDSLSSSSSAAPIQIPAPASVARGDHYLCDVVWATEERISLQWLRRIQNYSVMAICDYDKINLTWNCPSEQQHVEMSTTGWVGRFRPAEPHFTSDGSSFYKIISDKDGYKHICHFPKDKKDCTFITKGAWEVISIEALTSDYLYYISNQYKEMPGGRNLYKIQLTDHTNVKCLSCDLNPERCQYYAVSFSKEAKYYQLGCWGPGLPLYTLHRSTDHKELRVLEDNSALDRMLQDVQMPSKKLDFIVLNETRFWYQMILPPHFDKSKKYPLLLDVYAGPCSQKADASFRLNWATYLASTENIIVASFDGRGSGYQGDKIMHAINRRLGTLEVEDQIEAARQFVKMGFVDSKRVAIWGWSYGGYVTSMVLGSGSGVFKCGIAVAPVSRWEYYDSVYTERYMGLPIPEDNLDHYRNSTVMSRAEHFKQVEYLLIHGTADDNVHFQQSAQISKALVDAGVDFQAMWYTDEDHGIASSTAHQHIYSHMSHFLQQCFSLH
Kind of experiment: Inhibition of plasma dipeptidylpeptidase IV activity in mice by oral administration. Type of experiment: in vivo. Particulars: male ICR mice, 0.1 mg/mL at 10 mL/kg, plasma 30 minutes after administration vs before. The procedure: Each compound was suspended in 0.3% sodium carboxymethylcellulose to a concentration of 0.1 mg/mL. The preparation was orally administered to 8-week old male ICR mice (Charles River Laboratories Japan) at a dose of 10 mL/kg. Using an EDTA 2K-treated capillary tube, blood samples were collected from the tail vein before administration and 30 minutes after administration. The blood samples were centrifuged at 6000 rpm for 2 minutes to separate plasma. […] The inhibition was determined from the decrease in the enzymatic activity from the initial activity (% inhibition={(activity before administration−activity after administration)/(activity before administration)}×100).

SMILES strings stand for the structures.

Turning to `N#C[C@@H]1C[C@H](F)CN1C(=O)CNC12CCC(C(N)=O)(CC1)CC2` [Example 1, (2S,4S)-1-[[(4-carbamoylbicyclo[2.2.2]oct-1-yl)amino]acetyl]-4-fluoropyrrolidine-2-carbonitrile], inhibition in experiment [1] was half-maximal at 890 pM (IC50). For the same compound, the inhibition at 100 µg/mL (stock) in experiment [2] is 71%.
Regarding `CN1CCN(C(=O)C23CCC(NCC(=O)N4C[C@@H](F)C[C@H]4C#N)(CC2)CC3)CC1` [Example 8, (2S,4S)-4-fluoro-1-[[N-[4-(4-methylpiperazin-1-yl)carbonylbicyclo[2.2.2]oct-1-yl]amino]acetyl]pyrrolidine-2-carbonitrile], the IC50 in experiment [1] worked out at 830 pM. This lies in the sub-nanomolar range.
Regarding `CN(C)C(=O)C12CCC(NCC(=O)N3C[C@@H](F)C[C@H]3C#N)(CC1)CC2` [Example 9, (2S,4S)-1-[[N-[4-(dimethylamino)carbonylbicyclo[2.2.2]oct-1-yl]amino]acetyl]-4-fluoropyrrolidine-2-carbonitrile], in experiment [2], the inhibition at 100 µg/mL (stock) was found to be 87%.
`N#C[C@@H]1C[C@H](F)CN1C(=O)CNC12CCC(C(=O)N3CCC3)(CC1)CC2` [Example 15, (2S,4S)-1-[[[4-(azetidin-1-yl)carbonylbicyclo[2.2.2]oct-1-yl]amino]acetyl]-4-fluoropyrrolidine-2-carbonitrile] showed an inhibition at 100 µg/mL (stock) in experiment [2] of 66%.
For `N#C[C@@H]1C[C@H](F)CN1C(=O)CNC12CCC(C(=O)N3CC[C@@H](F)C3)(CC1)CC2` [Example 16, (2S,4S,3′ R)-4-fluoro-1-[[N-[4-(3-fluoropyrrolidin-1-yl)carbonylbicyclo[2.2.2]oct-1-yl]amino]acetyl]pyrrolidine-2-carbonitrile], half-maximal inhibition in experiment [1] (IC50) required 82 pM.
With `CC(C)(C)NC(=O)C12CCC(NCC(=O)N3C[C@@H](F)C[C@H]3C#N)(CC1)CC2` [Example 30, (2S,4S)-1-[[N-[4-(N-2,2-dimethylethylamino)carbonylbicyclo[2.2.2]oct-1-yl]amino]acetyl]-4-fluoropyrrolidine-2-carbonitrile], the inhibition at 100 µg/mL (stock) in experiment [2] is 77%.
`C=CCNC(=O)C12CCC(NCC(=O)N3C[C@@H](F)C[C@H]3C#N)(CC1)CC2` [Example 52, (2S,4S)-4-fluoro-1-[[N-[4-[N-(2-propenyl)amino]carbonylbicyclo[2.2.2]oct-1-yl]amino]acetyl]pyrrolidine-2-carbonitrile] displayed an IC50 in experiment [1] of 57 pM. In experiment [2], the inhibition at 100 µg/mL (stock) was 70%.

The values above are taken from patent publication US7560569B2, “Bicycloamide derivative” (Kyorin Pharmaceutical Co., Ltd, priority 2004, dated 2009).
